In one data set the test system is Septoria tritici. Kind of data set: Test D: preventive spray on wheat seedlings, Septoria tritici (wheat leaf blotch), visual disease rating. As to conditions: Zymoseptoria tritici, topical, 504 h, 100 = 100% disease control, 0 = no disease control relative to controls. Format: in vivo. An excerpt:
(§1) General protocol for preparing test suspensions for Tests A-H: the test compounds were first dissolved in acetone in an amount equal to 3% of the final volume and then suspended at the desired concentration (in ppm) in acetone and purified water (50/50 mix by volume) containing 250 ppm of the surfactant Trem® 014 (polyhydric alcohol esters). The resulting test suspensions were then used in Tests A-F. Spraying a 40 ppm test suspension to the point of run-off on the test plants was the equivalent of a rate of 160 g/ha. Unless otherwise indicated, the rating values indicate a 40 ppm test suspension was used. The test suspension was sprayed to the point of run-off on wheat seedlings. The following day the seedlings were inoculated with a spore suspension of Septoria tritici (the causal agent of wheat leaf blotch) and incubated in saturated atmosphere at 24° C. for 48 h, and then moved to a growth chamber at 20° C. for 19 days, after which time visual disease ratings were made. Results for Tests A-F are given in Table A. In the Table, a rating of 100 indicates 100% disease control and a rating of 0 indicates no disease control (relative to the controls). A dash (-) indicates no test results.

A further data set concerns Botrytis cinerea. Kind of data set: Test A: preventive spray on tomato seedlings, Botrytis cinerea (tomato Botrytis), visual disease rating. The class given is in vivo. As to conditions: 100 = 100% disease control, 0 = no disease control relative to controls.
From the text: as §1, with “tomato” for “wheat”, “Botrytis cinerea” for “Septoria tritici”, “tomato Botrytis)” for “wheat leaf blotch)”, “20°” for “24°”, “27°” for “20°”, “3” for “19”

Data set [1] relates to Blumeria graminis f. sp. tritici. Kind of data set: Test F: preventive spray on wheat seedlings, Blumeria graminis f. sp. tritici (wheat powdery mildew), visual disease rating. The class given is in vivo. Conditions: topical, 192 h, 100 = 100% disease control, 0 = no disease control relative to controls.
From the text: as §1, with “spore dust” for “spore suspension”, “of Blumeria graminis f. sp.” for “of Septoria”, “tritici (also known as Erysiphe graminis f. sp. tritici, the” for “tritici (the”, “wheat powdery mildew)” for “wheat leaf blotch)”, “in” for “in saturated atmosphere at 24° C. for 48 h, and then moved to”, “for 8” for “for 19”

The next data set relates to Septoria nodorum. Kind of data set: Test C: preventive spray on wheat seedlings, Septoria nodorum (Septoria glume blotch), visual disease rating. Format: in vivo. As to conditions: Parastagonospora nodorum, topical, 264 h, 100 = 100% disease control, 0 = no disease control relative to controls. An excerpt: General protocol for preparing test suspensions for Tests A-H: the test compounds were first dissolved in acetone in an amount equal to 3% of the final volume and then suspended at the desired concentration (in ppm) in acetone and purified water (50/50 mix by volume) containing 250 ppm of the surfactant Trem® 014 (polyhydric alcohol esters). The resulting test suspensions were then used in Tests A-F. Spraying a 40 ppm test suspension to the point of run-off on the test plants was the equivalent of a rate of 160 g/ha. Unless otherwise indicated, the rating values indicate a 40 ppm test suspension was used. The test suspension was sprayed to the point of run-off on wheat seedlings. The following day the seedlings were inoculated with a spore suspension of Septoria nodorum (the causal agent of Septoria glume blotch) and incubated in a saturated atmosphere at 20° C. for 48 h, and then moved to a growth chamber at 20° C. for 9 days, after which time visual disease ratings were made. Results for Tests A-F are given in Table A. In the Table, a rating of 100 indicates 100% disease control and a rating of 0 indicates no disease control (relative to the controls). A dash (-) indicates no test results.

Data set [2] relates to Puccinia recondita f. sp. tritici. Kind of data set: Test E2: preventive spray on wheat seedlings, Puccinia recondita f. sp. tritici (wheat leaf rust), visual disease rating. As to conditions: topical, 192 h, 100 = 100% disease control, 0 = no disease control relative to controls. The class given is in vivo. From the text: General protocol for preparing test suspensions for Tests A-H: the test compounds were first dissolved in acetone in an amount equal to 3% of the final volume and then suspended at the desired concentration (in ppm) in acetone and purified water (50/50 mix by volume) containing 250 ppm of the surfactant Trem® 014 (polyhydric alcohol esters). The resulting test suspensions were then used in Tests A-F. Spraying a 40 ppm test suspension to the point of run-off on the test plants was the equivalent of a rate of 160 g/ha. Unless otherwise indicated, the rating values indicate a 40 ppm test suspension was used. The test suspension was sprayed to the point of run-off on wheat seedlings. The following day the seedlings were inoculated with a spore suspension of Puccinia recondita f. sp. tritici (the causal agent of wheat leaf rust) and incubated in a saturated atmosphere at 20° C. for 24 h, and then moved to a growth chamber at 20° C. for 7 days, after which time visual disease ratings were made. Results for Tests A-F are given in Table A. In the Table, a rating of 100 indicates 100% disease control and a rating of 0 indicates no disease control (relative to the controls). A dash (-) indicates no test results.

Broadly, the melting point is the temperature, or range, at which the solid turns liquid. As usually defined, the pest or weed control is the degree to which the test organism was suppressed or injured, in per cent. Read a high pest or weed control as a strong effect.

Molecule `Cc1cc(Cl)c(Nc2c(-c3ccc(F)cc3Br)c(C)nn2C)c(Cl)c1` [Compound 15, 4-(2-bromo-4-fluorophenyl)-N-(2,6-dichloro-4-methylphenyl)-1,3-dimethyl-1H-pyrazol-5-amine] showed a melting point of 191 to 192 °C. Moreover, the pest or weed control at 40 µg/mL with Septoria tritici was determined as 100%. Moreover, the pest or weed control at 40 µg/mL with Botrytis cinerea stood at 100%. This molecule gave a pest or weed control at 40 µg/mL in data set [1] of 99%. In the data set on Septoria nodorum, this molecule had a pest or weed control at 40 µg/mL of 0%. For the same molecule, in data set [2], the pest or weed control at 40 µg/mL amounted to 100%.

Molecule `Cc1cc(Cl)c(Nc2c(-c3ccc(F)cc3F)c(C)nn2C)c(Cl)c1` [Compound 16, N-(2,6-dichloro-4-methylphenyl)-4-(2,4-difluorophenyl)-1,3-dimethyl-1H-pyrazol-5-amine] displayed a melting point of 147 to 149 °C. In the data set with Septoria tritici, this molecule returned a pest or weed control at 40 µg/mL of 73%. The pest or weed control at 40 µg/mL with Botrytis cinerea turned out to be 100%. In data set [1], this molecule returned a pest or weed control at 40 µg/mL of 99%. Moreover, in the data set with Septoria nodorum, the pest or weed control at 40 µg/mL came out at 97%. This molecule yielded a pest or weed control at 40 µg/mL in data set [2] of 100%.
